The values that follow come from article PMC11345841, “Exploring 2-Sulfonylpyrimidine Warheads as Acrylamide Surrogates for Targeted Covalent Inhibition: A BTK Story” (Journal of Medicinal Chemistry, 2024).

Like-named read-outs stand apart in the source and are kept apart here.

Holding throughout (test): KINOMEscan ScanTK
Format in all cases: binding

Experiment [1] deals with T1, ABL1(F317L)-nonphosphorylated (Homo sapiens, UniProt P00519, F317L).
T1 construct: purchased Eurofins DiscoverX KINOMEscan (scanTK)
T1 sequence (P00519 whole entry F317L): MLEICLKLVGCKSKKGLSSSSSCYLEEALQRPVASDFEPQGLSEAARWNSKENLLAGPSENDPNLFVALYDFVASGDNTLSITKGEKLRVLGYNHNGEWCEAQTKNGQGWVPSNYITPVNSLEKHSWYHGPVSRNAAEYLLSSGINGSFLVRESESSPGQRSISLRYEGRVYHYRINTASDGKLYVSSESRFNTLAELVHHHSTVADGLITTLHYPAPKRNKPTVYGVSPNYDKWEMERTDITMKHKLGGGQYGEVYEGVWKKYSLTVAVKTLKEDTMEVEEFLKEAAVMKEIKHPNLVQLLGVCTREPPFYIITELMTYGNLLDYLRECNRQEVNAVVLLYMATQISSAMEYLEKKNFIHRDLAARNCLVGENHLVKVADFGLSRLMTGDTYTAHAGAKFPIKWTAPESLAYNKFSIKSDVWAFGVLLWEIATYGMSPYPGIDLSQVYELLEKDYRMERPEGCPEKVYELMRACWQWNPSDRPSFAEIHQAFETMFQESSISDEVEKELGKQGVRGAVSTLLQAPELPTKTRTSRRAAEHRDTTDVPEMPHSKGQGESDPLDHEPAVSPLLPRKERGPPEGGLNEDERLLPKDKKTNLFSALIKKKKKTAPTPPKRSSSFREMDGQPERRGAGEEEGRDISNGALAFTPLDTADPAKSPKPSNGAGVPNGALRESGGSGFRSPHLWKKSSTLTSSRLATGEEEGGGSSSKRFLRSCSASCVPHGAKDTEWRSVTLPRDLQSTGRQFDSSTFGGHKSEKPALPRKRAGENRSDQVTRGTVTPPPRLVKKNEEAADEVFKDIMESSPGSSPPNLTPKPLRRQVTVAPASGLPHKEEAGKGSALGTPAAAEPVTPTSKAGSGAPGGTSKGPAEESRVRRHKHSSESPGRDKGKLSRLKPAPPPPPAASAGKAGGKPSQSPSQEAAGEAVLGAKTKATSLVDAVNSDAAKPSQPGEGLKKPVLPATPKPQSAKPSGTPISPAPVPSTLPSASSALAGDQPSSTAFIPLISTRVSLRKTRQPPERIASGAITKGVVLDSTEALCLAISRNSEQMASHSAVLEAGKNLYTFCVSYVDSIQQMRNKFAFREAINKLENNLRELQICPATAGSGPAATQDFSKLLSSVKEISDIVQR

For experiment [2], the target named is T2, ALK (Homo sapiens, UniProt Q9UM73).
T2 construct: purchased Eurofins DiscoverX KINOMEscan (scanTK)
T2 sequence (Q9UM73 19-1620): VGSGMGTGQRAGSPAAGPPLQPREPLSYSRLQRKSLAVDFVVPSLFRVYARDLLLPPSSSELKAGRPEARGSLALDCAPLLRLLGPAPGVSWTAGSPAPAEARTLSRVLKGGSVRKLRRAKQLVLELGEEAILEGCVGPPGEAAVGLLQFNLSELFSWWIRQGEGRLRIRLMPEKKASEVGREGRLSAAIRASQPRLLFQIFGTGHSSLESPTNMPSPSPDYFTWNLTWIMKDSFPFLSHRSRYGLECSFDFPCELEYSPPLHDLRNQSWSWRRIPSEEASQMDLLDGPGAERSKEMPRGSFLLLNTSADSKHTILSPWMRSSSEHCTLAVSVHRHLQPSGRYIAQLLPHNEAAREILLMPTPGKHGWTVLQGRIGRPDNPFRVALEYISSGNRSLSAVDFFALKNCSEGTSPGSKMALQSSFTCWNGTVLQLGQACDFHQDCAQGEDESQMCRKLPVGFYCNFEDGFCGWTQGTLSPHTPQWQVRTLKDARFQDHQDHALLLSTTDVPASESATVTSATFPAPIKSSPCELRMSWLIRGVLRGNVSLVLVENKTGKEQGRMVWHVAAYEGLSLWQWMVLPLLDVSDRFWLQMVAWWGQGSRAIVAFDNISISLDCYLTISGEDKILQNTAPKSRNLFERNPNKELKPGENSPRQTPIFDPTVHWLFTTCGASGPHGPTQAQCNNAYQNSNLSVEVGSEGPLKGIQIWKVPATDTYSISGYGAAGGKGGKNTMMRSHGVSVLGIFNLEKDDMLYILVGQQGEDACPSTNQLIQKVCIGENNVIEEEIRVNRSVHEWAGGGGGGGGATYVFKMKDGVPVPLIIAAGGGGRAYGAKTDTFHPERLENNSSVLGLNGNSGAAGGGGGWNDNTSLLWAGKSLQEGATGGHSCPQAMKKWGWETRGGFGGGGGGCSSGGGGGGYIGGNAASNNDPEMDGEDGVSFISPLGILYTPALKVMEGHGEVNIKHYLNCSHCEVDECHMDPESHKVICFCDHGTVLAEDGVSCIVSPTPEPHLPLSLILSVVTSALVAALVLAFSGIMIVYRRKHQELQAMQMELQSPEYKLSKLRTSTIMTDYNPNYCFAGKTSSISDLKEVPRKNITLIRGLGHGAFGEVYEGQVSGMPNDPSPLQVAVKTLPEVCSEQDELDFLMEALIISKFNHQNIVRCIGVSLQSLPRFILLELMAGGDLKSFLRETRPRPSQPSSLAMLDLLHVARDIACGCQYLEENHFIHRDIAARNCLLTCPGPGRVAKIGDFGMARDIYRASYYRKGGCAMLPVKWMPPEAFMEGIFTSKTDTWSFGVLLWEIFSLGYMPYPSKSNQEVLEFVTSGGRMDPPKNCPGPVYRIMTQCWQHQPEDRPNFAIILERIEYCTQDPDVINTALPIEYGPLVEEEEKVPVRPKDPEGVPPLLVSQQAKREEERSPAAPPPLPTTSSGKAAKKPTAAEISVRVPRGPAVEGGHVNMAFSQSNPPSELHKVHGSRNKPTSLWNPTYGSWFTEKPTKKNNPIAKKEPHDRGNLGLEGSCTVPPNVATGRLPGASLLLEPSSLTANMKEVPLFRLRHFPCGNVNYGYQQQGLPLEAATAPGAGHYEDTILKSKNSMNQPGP

Experiment [3] concerns the target T3, CSF1R-autoinhibited (Homo sapiens, UniProt P07333).
T3 construct: purchased Eurofins DiscoverX KINOMEscan (scanTK)
T3 sequence (P07333 539-972 limits assumed): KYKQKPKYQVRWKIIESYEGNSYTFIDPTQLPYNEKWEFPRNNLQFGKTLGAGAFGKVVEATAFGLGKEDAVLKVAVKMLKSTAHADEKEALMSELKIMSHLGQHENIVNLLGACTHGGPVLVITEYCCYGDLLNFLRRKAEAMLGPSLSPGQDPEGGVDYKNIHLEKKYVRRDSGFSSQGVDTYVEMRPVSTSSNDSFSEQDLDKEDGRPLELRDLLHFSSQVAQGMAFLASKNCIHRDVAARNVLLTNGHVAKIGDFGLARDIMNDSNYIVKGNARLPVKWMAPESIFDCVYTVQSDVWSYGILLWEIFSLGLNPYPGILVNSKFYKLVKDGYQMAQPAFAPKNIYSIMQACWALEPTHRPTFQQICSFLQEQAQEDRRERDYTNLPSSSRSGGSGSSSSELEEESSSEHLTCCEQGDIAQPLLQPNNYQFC

Experiment [4] deals with T4, EPHA3 (Homo sapiens, UniProt P29320).
T4 construct: purchased Eurofins DiscoverX KINOMEscan (scanTK)
T4 sequence (P29320 21-983): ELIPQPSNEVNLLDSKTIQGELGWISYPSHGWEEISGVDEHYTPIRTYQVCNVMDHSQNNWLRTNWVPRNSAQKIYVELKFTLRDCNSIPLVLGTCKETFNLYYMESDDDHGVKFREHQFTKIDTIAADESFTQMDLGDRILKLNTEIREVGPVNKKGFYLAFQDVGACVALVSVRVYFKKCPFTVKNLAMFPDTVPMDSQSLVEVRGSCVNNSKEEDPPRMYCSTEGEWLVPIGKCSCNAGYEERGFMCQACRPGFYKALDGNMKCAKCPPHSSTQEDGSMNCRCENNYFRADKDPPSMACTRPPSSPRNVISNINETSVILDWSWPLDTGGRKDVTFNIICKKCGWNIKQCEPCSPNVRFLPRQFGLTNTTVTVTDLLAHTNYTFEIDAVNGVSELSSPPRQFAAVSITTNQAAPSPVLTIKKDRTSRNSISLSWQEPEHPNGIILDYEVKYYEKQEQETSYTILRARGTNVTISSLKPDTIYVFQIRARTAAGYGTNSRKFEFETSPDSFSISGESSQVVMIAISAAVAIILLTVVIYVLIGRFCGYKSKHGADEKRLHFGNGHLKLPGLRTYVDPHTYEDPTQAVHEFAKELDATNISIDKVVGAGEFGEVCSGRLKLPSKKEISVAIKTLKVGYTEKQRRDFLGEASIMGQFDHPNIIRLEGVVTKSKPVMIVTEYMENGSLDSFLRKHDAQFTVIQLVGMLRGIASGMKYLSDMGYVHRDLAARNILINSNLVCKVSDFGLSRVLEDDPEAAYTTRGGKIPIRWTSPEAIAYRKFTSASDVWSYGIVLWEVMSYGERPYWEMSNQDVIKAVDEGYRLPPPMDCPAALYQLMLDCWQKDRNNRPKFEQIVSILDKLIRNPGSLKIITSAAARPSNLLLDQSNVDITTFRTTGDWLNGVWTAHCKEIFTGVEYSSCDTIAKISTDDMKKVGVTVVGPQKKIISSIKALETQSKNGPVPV

Experiment [5] concerns the target T5, FLT3-autoinhibited (Homo sapiens, UniProt P36888).
T5 construct: purchased Eurofins DiscoverX KINOMEscan (scanTK)
T5 sequence (P36888 27-993): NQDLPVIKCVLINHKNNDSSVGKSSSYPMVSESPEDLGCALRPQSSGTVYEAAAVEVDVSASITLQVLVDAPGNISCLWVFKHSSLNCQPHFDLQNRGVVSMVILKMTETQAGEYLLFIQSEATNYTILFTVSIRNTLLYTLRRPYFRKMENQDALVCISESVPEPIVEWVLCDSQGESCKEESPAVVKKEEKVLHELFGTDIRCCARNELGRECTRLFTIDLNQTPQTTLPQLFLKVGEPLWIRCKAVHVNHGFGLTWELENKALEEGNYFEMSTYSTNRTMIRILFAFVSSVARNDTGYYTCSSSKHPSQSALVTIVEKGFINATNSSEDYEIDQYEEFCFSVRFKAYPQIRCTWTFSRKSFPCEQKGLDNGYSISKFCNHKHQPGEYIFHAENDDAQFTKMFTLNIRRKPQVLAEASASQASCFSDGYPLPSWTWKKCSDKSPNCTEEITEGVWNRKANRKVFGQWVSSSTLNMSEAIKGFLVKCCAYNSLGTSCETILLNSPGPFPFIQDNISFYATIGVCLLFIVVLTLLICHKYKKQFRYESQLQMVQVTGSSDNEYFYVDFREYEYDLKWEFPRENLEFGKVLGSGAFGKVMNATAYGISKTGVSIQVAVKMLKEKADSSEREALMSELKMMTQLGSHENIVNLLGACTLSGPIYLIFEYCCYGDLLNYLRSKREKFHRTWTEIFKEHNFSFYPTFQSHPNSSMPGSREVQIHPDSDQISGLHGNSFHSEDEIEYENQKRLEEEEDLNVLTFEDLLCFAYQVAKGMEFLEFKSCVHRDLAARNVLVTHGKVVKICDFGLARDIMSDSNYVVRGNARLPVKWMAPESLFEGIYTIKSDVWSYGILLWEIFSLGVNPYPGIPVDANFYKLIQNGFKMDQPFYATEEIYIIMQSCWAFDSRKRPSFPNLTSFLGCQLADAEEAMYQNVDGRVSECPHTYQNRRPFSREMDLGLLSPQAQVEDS

Experiment [6] addresses T6, FLT4 (Homo sapiens, UniProt P35916).
T6 construct: purchased Eurofins DiscoverX KINOMEscan (scanTK)

The target of experiment [7] is T7, KIT(V559D) (Homo sapiens, UniProt P10721, V559D).
T7 construct: purchased Eurofins DiscoverX KINOMEscan (scanTK)

Experiment [8] concerns the target T8, YES (Homo sapiens, UniProt P07947).
T8 construct: purchased Eurofins DiscoverX KINOMEscan (scanTK)

T6 sequence (P35916 25-1363): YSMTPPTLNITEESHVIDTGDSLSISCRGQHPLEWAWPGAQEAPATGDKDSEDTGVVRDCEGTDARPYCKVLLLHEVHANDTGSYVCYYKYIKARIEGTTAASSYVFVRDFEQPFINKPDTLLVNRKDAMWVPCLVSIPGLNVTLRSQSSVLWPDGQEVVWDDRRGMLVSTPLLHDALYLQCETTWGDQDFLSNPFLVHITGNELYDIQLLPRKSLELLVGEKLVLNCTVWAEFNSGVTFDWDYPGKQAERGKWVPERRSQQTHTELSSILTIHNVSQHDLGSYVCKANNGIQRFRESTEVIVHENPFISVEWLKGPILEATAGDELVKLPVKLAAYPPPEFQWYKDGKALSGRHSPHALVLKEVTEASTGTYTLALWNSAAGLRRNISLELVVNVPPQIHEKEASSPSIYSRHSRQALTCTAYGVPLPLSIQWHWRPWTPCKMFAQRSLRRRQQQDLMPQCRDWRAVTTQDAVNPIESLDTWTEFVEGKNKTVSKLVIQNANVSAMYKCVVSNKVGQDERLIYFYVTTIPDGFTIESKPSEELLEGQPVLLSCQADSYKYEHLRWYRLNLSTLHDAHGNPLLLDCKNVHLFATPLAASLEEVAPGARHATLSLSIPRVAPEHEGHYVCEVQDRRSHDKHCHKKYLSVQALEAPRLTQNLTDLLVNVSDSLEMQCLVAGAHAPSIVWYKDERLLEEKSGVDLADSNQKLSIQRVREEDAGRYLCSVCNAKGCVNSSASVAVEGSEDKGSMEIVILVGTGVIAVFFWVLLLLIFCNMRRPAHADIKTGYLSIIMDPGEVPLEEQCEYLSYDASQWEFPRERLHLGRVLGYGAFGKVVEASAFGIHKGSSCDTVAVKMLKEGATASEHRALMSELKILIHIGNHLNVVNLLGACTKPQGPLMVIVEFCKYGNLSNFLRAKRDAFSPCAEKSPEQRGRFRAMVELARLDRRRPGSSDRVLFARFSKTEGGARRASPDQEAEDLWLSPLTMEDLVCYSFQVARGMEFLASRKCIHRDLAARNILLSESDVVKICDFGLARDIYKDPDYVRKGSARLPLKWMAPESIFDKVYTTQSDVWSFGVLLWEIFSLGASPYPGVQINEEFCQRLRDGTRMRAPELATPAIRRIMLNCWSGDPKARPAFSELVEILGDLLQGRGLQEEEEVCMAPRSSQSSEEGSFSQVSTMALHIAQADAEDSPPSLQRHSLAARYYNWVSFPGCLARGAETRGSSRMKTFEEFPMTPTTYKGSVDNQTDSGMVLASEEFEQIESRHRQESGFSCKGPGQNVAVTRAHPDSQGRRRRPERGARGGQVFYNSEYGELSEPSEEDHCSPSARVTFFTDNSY
T8 sequence (P07947 whole entry): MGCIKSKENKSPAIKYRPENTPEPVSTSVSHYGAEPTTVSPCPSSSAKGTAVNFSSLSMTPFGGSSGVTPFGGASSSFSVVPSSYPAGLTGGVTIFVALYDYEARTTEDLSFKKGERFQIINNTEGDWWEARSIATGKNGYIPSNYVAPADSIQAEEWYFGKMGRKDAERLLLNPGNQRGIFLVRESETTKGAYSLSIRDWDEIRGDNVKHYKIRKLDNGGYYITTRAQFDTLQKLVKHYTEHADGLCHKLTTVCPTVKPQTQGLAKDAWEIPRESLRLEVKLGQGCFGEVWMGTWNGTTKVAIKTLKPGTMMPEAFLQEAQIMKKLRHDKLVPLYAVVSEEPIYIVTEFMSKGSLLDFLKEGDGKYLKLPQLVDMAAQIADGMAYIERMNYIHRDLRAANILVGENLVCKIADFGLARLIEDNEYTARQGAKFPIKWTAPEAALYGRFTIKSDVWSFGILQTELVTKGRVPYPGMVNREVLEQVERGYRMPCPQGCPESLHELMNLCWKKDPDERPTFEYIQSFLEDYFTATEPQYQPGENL

In experiment [1] (@1000nM), `CNC(=O)c1cnc(S(C)(=O)=O)nc1N1CCCC(n2nc(-c3ccc(Oc4ccccc4)cc3)c3c(N)ncnc32)C1` (stereo not shown) [Compound 8d, 4-(3-(4-Amino-3-(4-phenoxyphenyl)-1H-pyrazolo[3,4-d]pyrimidin-1-yl)piperidin-1-yl)-N-methyl-2-(methylsulfonyl)pyrimidine-5-carboxamide] came in with a difference in % of control binding versus compound Ib at 1 µM of 22%. The remaining binding at 1 µM came out at 54% in experiment [1] (@1000nM, read-out: %Control); 54% in experiment [1] (read-out: %Control @1000nM); 83% in experiment [2] (@1000nM, read-out: %Control); 83% in experiment [2] (read-out: %Control @1000nM); 86% in experiment [3] (@1000nM, read-out: %Control); 86% in experiment [3] (read-out: %Control @1000nM). The remaining binding at 1 µM in experiment [4] (@1000nM, read-out: %Control) worked out at 84%; in experiment [4] (read-out: %Control @1000nM), 84%; in experiment [5] (@1000nM, read-out: %Control), 100%; in experiment [5] (read-out: %Control @1000nM), 100%; in experiment [6] (@1000nM, read-out: %Control), 94%; in experiment [6] (read-out: %Control @1000nM), 94%. Further, the remaining binding at 1 µM was 60% in experiment [7] (@1000nM, read-out: %Control); 60% in experiment [7] (read-out: %Control @1000nM); 11% in experiment [8] (@1000nM, read-out: %Control); 11% in experiment [8] (read-out: %Control @1000nM). Moreover, the difference in %Control versus compound Ib at 1 µM in experiment [2] (@1000nM) was -11%; in experiment [3] (@1000nM), 9%. This compound showed a difference in % of control versus compound Ib at 1 µM in experiment [4] (@1000nM) of 8%. Besides, the difference in %Control vs compound Ib at 1 µM in experiment [5] (@1000nM) turned out to be 3%. In addition, the difference in %Control from compound Ib at 1 µM in experiment [6] (@1000nM) came to 67%.
